Test results published in patent US9549932B2, “2-(morpholin-4-yl)-1,7-naphthyridines” (BAYER PHARMA AKTIENGESELLSCHAFT, priority 2014, dated 2017).
Where a name gives a salt, the structure may show the parent alone. Read-outs that look alike come from different tables or passages of the source.

Key:
[1] = target: full-length human ATR protein (Homo sapiens (Human), UniProt Q13535); assay: Binding assay ATR (TR-FRET tracer displacement); details: TR-FRET
Procedure, shortened: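 Full-length human GST-ATR co-purified with ATRIP, pre-complexed 30 min at 22 °C with anti-GST-Tb antibody, then pre-bound with compound 10 min. Tracer A or B added (2 µl of 100 nM solution), 30 min at 22 °C.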

NCI-H460 cells = assay: Proliferation assay NCI-H460 (crystal violet); details: read-out: Inhibition of NCI-H460 cell proliferation, 4 days incubation
Protocol: (§1) After 24 hours, the cells of one plate (zero plate) were dyed with crystal violet (see below), whereas the medium of the other plates was replaced with fresh culture medium (200 μl) to which the test substances were added in various concentrations (0 μM, and also in the range of 0.001-10 μM; the final concentration of the solvent dimethyl sulphoxide was 0.1 or 0.5%). The cells were incubated for 4 days in the presence of the test substances. […] After washing the fixed cells three times with water, the plates were dried at room temperature. The cells were stained by adding 100 μl/measurement point of a 0.1% strength crystal violet solution (pH adjusted to pH 3 by adding acetic acid). After washing the cells three times with water, the plates were dried at room temperature. The dye was dissolved by adding 100 μl/measurement point of a 10% strength acetic acid solution. […] The percentage change in cell growth was calculated by normalizing the measured values to the absorbance values of the zero plate (=0%) and the absorbance of the untreated (0 μM) cells (=100%). The IC50 values were determined by means of a four parameter fit.

DU145 cells = assay: Proliferation assay DU145 (crystal violet); details: read-out: Inhibition of DU145 cell proliferation, 4 days incubation
Protocol: as §1

B16F10 cells = assay: Proliferation assay B16F10 (crystal violet); details: read-out: Inhibition of B16F10 cell proliferation, 4 days incubation
Protocol: as §1

Caco-2 cells = assay: Proliferation assay Caco-2 (crystal violet); type: cell-based, human; details: 4 days incubation, read-out: Inhibition of Caco-2 cell proliferation
Protocol: as §1

HeLa cells = assay: Proliferation assay HeLa (crystal violet)
Protocol: as §1

[2] = tracer A, read-out: ATR binding (tracer A) IC50
[3] = tracer B, read-out: ATR binding (tracer B) IC50

full-length human ATR protein, sequence (Q13535 other isoform, or with tags, fused parts or gaps): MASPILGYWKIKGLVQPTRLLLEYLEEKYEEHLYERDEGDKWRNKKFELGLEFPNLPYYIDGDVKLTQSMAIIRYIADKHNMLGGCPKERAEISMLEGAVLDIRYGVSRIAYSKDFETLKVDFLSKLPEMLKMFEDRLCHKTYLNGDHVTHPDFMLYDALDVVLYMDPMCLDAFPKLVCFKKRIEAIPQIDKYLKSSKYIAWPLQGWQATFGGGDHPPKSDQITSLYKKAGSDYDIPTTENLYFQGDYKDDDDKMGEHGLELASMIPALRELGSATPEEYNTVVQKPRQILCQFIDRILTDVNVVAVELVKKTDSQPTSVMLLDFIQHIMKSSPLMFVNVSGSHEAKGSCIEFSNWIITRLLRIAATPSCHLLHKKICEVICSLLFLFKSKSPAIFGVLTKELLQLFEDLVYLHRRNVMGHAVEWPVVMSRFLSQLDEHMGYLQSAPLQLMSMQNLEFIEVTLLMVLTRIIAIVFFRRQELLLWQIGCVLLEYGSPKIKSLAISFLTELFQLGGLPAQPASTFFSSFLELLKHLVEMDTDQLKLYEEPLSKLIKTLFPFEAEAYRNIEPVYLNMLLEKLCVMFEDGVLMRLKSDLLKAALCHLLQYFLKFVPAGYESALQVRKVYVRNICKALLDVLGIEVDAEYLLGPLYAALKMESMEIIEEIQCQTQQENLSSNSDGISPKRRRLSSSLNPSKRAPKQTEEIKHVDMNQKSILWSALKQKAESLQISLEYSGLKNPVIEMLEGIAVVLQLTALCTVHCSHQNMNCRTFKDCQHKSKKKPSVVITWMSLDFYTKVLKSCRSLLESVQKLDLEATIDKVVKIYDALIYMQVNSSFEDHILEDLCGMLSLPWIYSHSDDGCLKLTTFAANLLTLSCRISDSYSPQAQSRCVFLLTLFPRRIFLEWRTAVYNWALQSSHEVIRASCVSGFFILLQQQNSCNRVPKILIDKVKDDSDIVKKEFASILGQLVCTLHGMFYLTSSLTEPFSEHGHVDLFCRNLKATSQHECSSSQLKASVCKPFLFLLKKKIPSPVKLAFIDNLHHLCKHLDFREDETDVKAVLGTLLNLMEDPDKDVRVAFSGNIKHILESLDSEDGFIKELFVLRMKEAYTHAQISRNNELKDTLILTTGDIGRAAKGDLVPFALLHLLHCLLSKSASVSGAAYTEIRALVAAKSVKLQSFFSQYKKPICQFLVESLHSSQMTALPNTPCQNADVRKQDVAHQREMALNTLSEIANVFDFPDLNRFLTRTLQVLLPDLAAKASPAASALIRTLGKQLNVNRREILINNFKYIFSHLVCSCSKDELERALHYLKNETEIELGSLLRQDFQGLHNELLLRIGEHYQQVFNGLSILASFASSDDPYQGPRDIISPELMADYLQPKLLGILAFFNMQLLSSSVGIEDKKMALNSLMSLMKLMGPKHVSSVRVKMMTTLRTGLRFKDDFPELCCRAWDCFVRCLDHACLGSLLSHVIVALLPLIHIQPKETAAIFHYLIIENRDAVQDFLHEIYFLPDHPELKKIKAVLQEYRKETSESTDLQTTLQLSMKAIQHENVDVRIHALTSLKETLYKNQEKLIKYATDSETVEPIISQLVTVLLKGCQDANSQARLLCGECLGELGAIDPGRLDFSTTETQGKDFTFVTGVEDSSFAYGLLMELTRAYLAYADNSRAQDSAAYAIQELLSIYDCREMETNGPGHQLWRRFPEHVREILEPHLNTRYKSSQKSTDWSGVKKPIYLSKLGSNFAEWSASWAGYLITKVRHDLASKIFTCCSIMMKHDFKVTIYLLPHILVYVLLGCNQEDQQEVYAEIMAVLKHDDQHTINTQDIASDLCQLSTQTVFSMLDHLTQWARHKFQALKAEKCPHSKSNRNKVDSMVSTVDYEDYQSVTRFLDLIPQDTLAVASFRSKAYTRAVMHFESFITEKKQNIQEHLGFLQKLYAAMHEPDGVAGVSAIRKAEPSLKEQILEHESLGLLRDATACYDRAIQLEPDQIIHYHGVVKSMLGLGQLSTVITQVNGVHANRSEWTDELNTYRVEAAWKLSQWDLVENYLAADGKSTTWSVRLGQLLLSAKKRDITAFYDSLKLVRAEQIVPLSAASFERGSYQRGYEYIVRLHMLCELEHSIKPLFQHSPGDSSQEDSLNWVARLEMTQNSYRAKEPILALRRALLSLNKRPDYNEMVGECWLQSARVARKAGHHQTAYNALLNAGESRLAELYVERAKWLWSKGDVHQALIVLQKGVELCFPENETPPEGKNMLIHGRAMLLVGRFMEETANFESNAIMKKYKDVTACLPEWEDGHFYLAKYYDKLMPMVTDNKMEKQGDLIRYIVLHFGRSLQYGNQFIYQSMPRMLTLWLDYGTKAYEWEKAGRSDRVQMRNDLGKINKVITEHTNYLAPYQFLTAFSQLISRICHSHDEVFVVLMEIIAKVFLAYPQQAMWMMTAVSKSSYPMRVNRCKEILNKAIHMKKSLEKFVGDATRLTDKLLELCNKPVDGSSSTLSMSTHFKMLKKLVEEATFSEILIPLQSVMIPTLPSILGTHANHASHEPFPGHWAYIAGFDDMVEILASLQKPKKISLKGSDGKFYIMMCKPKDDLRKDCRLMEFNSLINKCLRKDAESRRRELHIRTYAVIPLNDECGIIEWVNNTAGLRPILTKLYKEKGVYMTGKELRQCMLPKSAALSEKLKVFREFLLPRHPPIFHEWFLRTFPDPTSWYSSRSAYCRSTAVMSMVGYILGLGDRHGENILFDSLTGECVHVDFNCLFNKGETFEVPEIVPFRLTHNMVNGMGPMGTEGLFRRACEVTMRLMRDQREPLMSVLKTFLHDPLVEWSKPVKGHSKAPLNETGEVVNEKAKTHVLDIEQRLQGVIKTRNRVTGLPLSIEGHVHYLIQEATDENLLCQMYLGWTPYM
full-length human ATR protein, sequence (Q8WXE1 other isoform, or with tags, fused parts or gaps partner): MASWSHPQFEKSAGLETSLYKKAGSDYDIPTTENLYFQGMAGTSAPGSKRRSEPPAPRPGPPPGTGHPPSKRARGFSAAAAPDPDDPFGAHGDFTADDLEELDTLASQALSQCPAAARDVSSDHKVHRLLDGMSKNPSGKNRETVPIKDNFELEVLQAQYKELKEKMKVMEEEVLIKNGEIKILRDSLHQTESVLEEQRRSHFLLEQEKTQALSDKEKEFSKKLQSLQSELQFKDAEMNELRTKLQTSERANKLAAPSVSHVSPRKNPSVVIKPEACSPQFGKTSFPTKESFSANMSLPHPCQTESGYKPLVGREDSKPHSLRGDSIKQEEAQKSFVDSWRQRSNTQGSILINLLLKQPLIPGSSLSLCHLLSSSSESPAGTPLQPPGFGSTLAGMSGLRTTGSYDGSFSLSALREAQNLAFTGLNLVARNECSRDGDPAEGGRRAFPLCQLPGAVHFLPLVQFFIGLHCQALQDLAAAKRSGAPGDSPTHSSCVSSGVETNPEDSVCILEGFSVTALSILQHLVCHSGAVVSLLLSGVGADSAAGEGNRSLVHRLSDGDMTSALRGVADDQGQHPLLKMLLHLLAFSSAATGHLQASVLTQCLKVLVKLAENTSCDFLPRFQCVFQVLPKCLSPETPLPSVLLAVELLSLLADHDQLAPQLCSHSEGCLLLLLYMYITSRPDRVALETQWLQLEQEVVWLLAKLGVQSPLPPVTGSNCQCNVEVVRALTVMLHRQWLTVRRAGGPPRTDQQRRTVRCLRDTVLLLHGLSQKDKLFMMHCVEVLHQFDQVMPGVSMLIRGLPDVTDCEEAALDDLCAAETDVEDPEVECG

Compound: O=S1(=O)CCCN1c1cc(N2CCOCC2)nc2c(-c3ccn[nH]3)nccc12 [Example 216, 4-(1,1-dioxido-1,2-thiazolidin-2-yl)-2-(morpholin-4-yl)-8-(1H-pyrazol-5-yl)-1,7-naphthyridine]
- IC50 [1, 2]: 84.4 nM
- IC50 (NCI-H460 cells): 1020 nM
- IC50 (DU145 cells): 1330 nM

Compound: CC(C)Oc1cc(N2CCOCC2)nc2c(-c3cc[nH]n3)nccc12 [Example 40, 4-isopropoxy-2-(morpholin-4-yl)-8-(1H-pyrazol-3-yl)-[1,7]naphthyridine]
- IC50 [1, 2]: 125 nM
- IC50 [1, 3]: 99 nM
- IC50 (B16F10 cells): > 3000 nM

Compound: CCOP(C)(=O)c1cc(N2CCOC[C@H]2C)nc2c(-c3ccn[nH]3)nccc12 (stereo partly drawn) [Example 125, Ethyl methyl{2-[(3R)-3-methylmorpholin-4-yl]-8-(1H-pyrazol-5-yl)-1,7-naphthyridin-4-yl}phosphinate]
- IC50 [1, 2]: 17.2 nM
- IC50 (NCI-H460 cells): 541 nM
- IC50 (DU145 cells): 764 nM
- IC50 (Caco-2 cells): 2630 nM

Compound: CS(=O)(=O)c1cc(N2CCOCC2)nc2c(-c3cc[nH]n3)nccc12 [Example 32]
- IC50 [1, 2]: 84.7 nM
- IC50 [1, 3]: 36.7 nM
- IC50 (NCI-H460 cells): 1950 nM

Compound: c1cc(-c2nccc3c(N4C[C@@H]5C[C@H]4CO5)cc(N4CCOCC4)nc23)[nH]n1 [Example 185, 2-(morpholin-4-yl)-4-[(1S,4S)-2-oxa-5-azabicyclo[2.2.1]hept-5-yl]-8-(1H-pyrazol-5-yl)-1,7-naphthyridine]
- IC50 [1, 2]: 852 nM
- IC50 (HeLa cells; Homo sapiens, HeLa, 96 h, read-out: Inhibition of HeLa cell proliferation, HeLa cells, 4 days incubation, crystal violet): > 3000 nM

Compound: 5-fluoro-2-{2-[(3R)-3-methylmorpholin-4-yl]-8-(1H-pyrazol-5-yl)-1,7-naphthyridin-4-yl}aniline [Example 190]
- IC50 (HeLa cells; read-out: Inhibition of HeLa cell proliferation, HeLa cells, 4 days incubation, crystal violet): 334 nM

Compound: CCS(=O)(=O)c1cc(N2CCOCC2)nc2c(-c3ccn[nH]3)nccc12 [Example 200, 4-(ethylsulfonyl)-2-(morpholin-4-yl)-8-(1H-pyrazol-5-yl)-1,7-naphthyridine]
- IC50 [1, 2]: 86.9 nM

Compound: CC(C)(O)c1cc(N2CCOCC2)nc2c(-c3ccn[nH]3)nccc12 [Example 173, 2-[2-(morpholin-4-yl)-8-(1H-pyrazol-5-yl)-1,7-naphthyridin-4-yl]propan-2-ol]
- IC50 [1, 2]: 205 nM

Compound: C[C@@H]1COCCN1c1cc(N(C)c2ccc(F)cc2)c2ccnc(-c3ccn[nH]3)c2n1 [Example 87, N-(4-fluorophenyl)-N-methyl-2-[(3R)-3-methylmorpholin-4-yl]-8-(1H-pyrazol-5-yl)-1,7-naphthyridin-4-amine]
- IC50 [1, 2]: 8.71 nM

Compound: C[C@@H]1COCCN1c1cc(-c2cncn2Cc2ccccc2)c2ccnc(-c3ccn[nH]3)c2n1 [Example 76, 4-(1-benzyl-1H-imidazol-5-yl)-2-[(3R)-3-methylmorpholin-4-yl]-8-(1H-pyrazol-5-yl)-1,7-naphthyridine]
- IC50 [1, 2]: 8.91 nM

Compound: N#Cc1cc(N2CCOCC2)nc2c(-c3cc[nH]n3)nccc12 [Example 34, 2-(morpholin-4-yl)-8-(1H-pyrazol-3-yl)-[1,7]naphthyridine-4-carbonitrile]
- IC50 [1, 2]: 357 nM
- IC50 [1, 3]: 536 nM

Compound: CC(C)S(=O)(=O)c1cc(N2CCOCC2)nc2c(-c3ccn[nH]3)nccc12 [Example 199, 2-(morpholin-4-yl)-4-(propan-2-ylsulfonyl)-8-(1H-pyrazol-5-yl)-1,7-naphthyridine]
- IC50 [1, 2]: 138 nM

Compound: Cc1ccc(-c2cc(N3CCOC[C@H]3C)nc3c(-c4ccn[nH]4)nccc23)c(F)n1 [Example 93, 4-(2-fluoro-6-methylpyridin-3-yl)-2-[(3R)-3-methylmorpholin-4-yl]-8-(1H-pyrazol-5-yl)-1,7-naphthyridine]
- IC50 [1, 2]: 10.9 nM

Compound: C[C@@H]1COCCN1c1cc(-c2ccccc2F)c2ccnc(-c3ccn[nH]3)c2n1 [Example 77, 4-(2-fluorophenyl)-2-[(3R)-3-methylmorpholin-4-yl]-8-(1H-pyrazol-5-yl)-1,7-naphthyridine]
- IC50 [1, 2]: 8.92 nM

Compound: C[C@@H]1CN[C@@H](C)CN1c1cc(N2CCOCC2)nc2c(-c3ccn[nH]3)nccc12 (relative stereo) [Example 178, 4-[(trans)-2,5-dimethylpiperazin-1-yl]-2-(morpholin-4-yl)-8-(1H-pyrazol-5-yl)-1,7-naphthyridine]
- IC50 [1, 2]: 377 nM

Compound: CC(C)Nc1cc(N2CCOCC2)nc2c(-c3ccn[nH]3)nccc12 [Example 208, 2-(morpholin-4-yl)-N-(propan-2-yl)-8-(1H-pyrazol-5-yl)-1,7-naphthyridin-4-amine]
- IC50 [1, 2]: 1160 nM

Compound: CS(=O)(=O)C1(c2cc(N3CCOCC3)nc3c(-c4ccn[nH]4)nccc23)CC1 [Example 39, 4-(1-methanesulphonylcyclopropyl)-2-(morpholin-4-yl)-8-(2H-pyrazol-3-yl)-[1,7]naphthyridine]
- IC50 [1, 2]: 60.1 nM
- IC50 [1, 3]: 35.3 nM

Compound: C[C@@H]1COCCN1c1cc(OCCCS(C)(=O)=O)c2ccnc(-c3ccn[nH]3)c2n1 [Example 197, 2-[(3R)-3-methylmorpholin-4-yl]-4-[3-(methylsulfonyl)propoxy]-8-(1H-pyrazol-5-yl)-1,7-naphthyridine]
- IC50 [1, 2]: 72.4 nM

Compound: CS(=O)(=O)c1ccccc1-c1cc(N2CCOCC2)nc2c(-c3cc[nH]n3)nccc12 [Example 8, 4-(2-methanesulphonylphenyl)-2-(morpholin-4-yl)-8-(1H-pyrazol-3-yl)-[1,7]naphthyridine hydrochloride]
- IC50 [1, 2]: 118 nM
- IC50 [1, 3]: 69.2 nM

Compound: O=S(=O)(c1ccccc1)c1cc(N2CCOCC2)nc2c(-c3ccn[nH]3)nccc12 [Example 198, 2-(morpholin-4-yl)-4-(phenylsulfonyl)-8-(1H-pyrazol-5-yl)-1,7-naphthyridine]
- IC50 [1, 2]: 293 nM

Compound: COc1cccc(-c2cc(N3CCOCC3)nc3c(-c4ccn[nH]4)nccc23)c1OC [Example 319, 4-(2,3-dimethoxyphenyl)-2-(morpholin-4-yl)-8-(1H-pyrazol-5-yl)-1,7-naphthyridine]
- IC50 [1, 2]: 325 nM

Compound: CS(=O)(=NC#N)c1ccc(-c2cc(N3CCOCC3)nc3c(-c4ccn[nH]4)nccc23)cc1 (stereo not shown) [Example 191, (methyl{4-[2-(morpholin-4-yl)-8-(1H-pyrazol-5-yl)-1,7-naphthyridin-4-yl]phenyl}oxido-λ^6-sulfanylidene)cyanamide]
- IC50 [1, 2]: 44.1 nM

Compound: CCn1nccc1-c1cc(N2CCOC[C@H]2C)nc2c(-c3ccn[nH]3)nccc12 [Example 69, 4-(1-ethyl-1H-pyrazol-5-yl)-2-[(3R)-3-methylmorpholin-4-yl]-8-(1H-pyrazol-5-yl)-1,7-naphthyridine]
- IC50 [1, 2]: 5.34 nM

Compound: C[C@@H]1COCCN1c1cc(-c2ccnn2C2CC2)c2ccnc(-c3ccn[nH]3)c2n1 [Example 80, 4-(1-cyclopropyl-1H-pyrazol-5-yl)-2-[(3R)-3-methylmorpholin-4-yl]-8-(1H-pyrazol-5-yl)-1,7-naphthyridine]
- IC50 [1, 2]: 12.1 nM

Compound: Nc1ncccc1-c1cc(N2CCOCC2)nc2c(-c3ccn[nH]3)nccc12 [Example 402, 3-[2-(morpholin-4-yl)-8-(1H-pyrazol-5-yl)-1,7-naphthyridin-4-yl]pyridin-2-amine]
- IC50 [1, 2]: 299 nM

Compound: NC(=O)[C@H]1CCCN1c1cc(N2CCOCC2)nc2c(-c3ccn[nH]3)nccc12 (stereo in doubt) [Example 428, 1-[2-(morpholin-4-yl)-8-(1H-pyrazol-5-yl)-1,7-naphthyridin-4-yl]-prolinamide]
- IC50 [1, 2]: 69.8 nM

Compound: Cc1csc(-c2cc(N3CCOC[C@H]3C)nc3c(-c4ccn[nH]4)nccc23)c1 [Example 239, 2-[(3R)-3-methylmorpholin-4-yl]-4-(4-methylthiophen-2-yl)-8-(1H-pyrazol-5-yl)-1,7-naphthyridine]
- IC50 [1, 2]: 20.3 nM

Compound: c1ccc(-c2cc(N3CCOCC3)nc3c(-c4cc[nH]n4)nccc23)cc1 [Example 11, 2-(morpholin-4-yl)-4-phenyl-8-(1H-pyrazol-3-yl)-[1,7]naphthyridine]
- IC50 [1, 2]: 135 nM
- IC50 [1, 3]: 86.8 nM

Compound: C[C@@H]1COCCN1c1cc(N=S2(=O)CCOCC2)c2ccnc(-c3ccn[nH]3)c2n1 [Example 64, N-{2-[(3R)-3-methylmorpholin-4-yl]-8-(1H-pyrazol-5-yl)-1,7-naphthyridin-4-yl}-1,4λ^4-oxathian-4-imine 4-oxide]
- IC50 [1, 2]: 27.4 nM
